Source: US12187723B2 (BRISTOL-MYERS SQUIBB COMPANY, priority 2019, dated 2025)

How the values were obtained:
[1] = molecular target: T1, human TLR8 (Homo sapiens, UniProt Q9NR97); assay: TLR8 inhibition reporter assay (HEK-Blue SEAP); type: cell-based; settings: HEK-Blue cells overexpressing human TLR8, R848 15.9 μM, 22 hour incubation
T1 construct: host or cells: HEK-Blue cells
T1 sequence (Q9NR97 27-1041): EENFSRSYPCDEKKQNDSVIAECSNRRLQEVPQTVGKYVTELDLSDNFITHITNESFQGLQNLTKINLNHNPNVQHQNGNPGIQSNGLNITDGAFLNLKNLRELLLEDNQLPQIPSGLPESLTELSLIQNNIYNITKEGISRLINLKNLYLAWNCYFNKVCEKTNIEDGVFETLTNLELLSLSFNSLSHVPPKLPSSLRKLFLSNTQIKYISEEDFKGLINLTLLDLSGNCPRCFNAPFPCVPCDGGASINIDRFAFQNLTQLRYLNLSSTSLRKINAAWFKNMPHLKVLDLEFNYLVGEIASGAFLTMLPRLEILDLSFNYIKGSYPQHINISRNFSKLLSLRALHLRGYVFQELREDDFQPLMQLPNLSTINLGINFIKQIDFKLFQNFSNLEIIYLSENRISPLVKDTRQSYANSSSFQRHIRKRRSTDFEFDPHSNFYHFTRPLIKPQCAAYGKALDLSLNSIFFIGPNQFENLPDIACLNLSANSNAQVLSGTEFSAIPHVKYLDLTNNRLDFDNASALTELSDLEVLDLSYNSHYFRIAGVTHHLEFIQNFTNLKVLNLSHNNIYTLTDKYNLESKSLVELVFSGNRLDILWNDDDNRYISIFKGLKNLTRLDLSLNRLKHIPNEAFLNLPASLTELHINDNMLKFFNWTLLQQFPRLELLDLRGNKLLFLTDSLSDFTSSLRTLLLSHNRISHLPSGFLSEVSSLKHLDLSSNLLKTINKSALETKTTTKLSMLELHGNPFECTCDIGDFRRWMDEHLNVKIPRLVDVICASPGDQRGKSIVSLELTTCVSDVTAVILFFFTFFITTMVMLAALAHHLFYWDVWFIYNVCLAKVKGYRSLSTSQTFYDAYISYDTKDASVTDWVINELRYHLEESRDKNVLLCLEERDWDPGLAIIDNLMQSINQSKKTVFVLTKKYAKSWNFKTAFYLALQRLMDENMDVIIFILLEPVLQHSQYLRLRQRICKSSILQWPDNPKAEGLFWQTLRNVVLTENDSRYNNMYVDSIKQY
Outline: (§1)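 Screening used HEK-Blue cells overexpressing one human TLR (7, 8 or 9) and an IFN-β minimal promoter–NF-κB/AP-1 SEAP construct. Stimulation lasted 22 h at 37 °C with receptor-specific agonist: gardiquimod, R848 or ODN2006 at 7.5 μM, 15.9 μM and 5 nM.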

[2] = molecular target: T2, human TLR9 (Homo sapiens, UniProt Q9NR96); assay: TLR9 inhibition reporter assay (HEK-Blue SEAP); type: cell-based; settings: HEK-Blue cells overexpressing human TLR9, ODN2006 5 nM, 22 hour incubation
T2 construct: host or cells: HEK-Blue cells
T2 sequence (Q9NR96 26-1032): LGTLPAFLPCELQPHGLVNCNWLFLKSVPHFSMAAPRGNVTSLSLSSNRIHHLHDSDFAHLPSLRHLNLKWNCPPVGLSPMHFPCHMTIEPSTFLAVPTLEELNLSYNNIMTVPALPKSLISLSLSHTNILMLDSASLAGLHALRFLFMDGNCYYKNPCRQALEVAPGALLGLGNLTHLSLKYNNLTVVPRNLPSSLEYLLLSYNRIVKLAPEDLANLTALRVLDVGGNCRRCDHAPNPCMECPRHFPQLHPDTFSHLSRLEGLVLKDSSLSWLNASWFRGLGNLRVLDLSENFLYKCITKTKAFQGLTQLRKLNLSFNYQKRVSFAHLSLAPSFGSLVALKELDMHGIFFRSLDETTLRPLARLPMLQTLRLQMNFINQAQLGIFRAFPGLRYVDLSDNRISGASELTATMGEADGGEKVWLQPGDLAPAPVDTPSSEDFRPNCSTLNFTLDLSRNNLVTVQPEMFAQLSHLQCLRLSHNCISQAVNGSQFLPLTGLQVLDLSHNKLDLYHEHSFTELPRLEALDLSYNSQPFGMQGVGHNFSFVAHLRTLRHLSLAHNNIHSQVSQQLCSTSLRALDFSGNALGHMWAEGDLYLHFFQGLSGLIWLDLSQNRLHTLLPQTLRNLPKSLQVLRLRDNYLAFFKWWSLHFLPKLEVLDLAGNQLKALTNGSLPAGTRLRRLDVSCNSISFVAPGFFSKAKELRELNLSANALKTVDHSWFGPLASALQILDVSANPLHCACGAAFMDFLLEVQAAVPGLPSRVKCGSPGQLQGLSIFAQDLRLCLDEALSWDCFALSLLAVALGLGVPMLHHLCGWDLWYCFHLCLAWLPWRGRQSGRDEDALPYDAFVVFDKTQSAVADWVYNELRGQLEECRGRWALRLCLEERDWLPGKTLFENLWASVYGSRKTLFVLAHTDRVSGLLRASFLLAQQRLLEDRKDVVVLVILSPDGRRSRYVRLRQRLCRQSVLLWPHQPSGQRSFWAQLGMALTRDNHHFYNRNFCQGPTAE
Outline: as §1

IC50 [1]	IC50 [2]	Compound
2.83 nM	11600 nM	COc1c(C)c(-c2cc3[nH]c(=O)n(C4CCC(N5CC6(COC6)C5)CC4)c3cc2C(C)C)cn2ncnc12 (single isomer, unassigned) [Example 270, 1-(4-(2-oxa-6-azaspiro[3.3]heptan-6-yl)cyclohexyl)-6-isopropyl-5-(8-methoxy-7-methyl-[1,2,4]triazolo[1,5-a]pyridin-6-yl)-1,3-dihydro-2H-benzo[d]imidazol-2-one]
0.81 nM	19900 nM	Cc1c(-c2cc3[nH]c(=O)n(C4CCC(N5CCC(F)(F)CC5)CC4)c3cc2C(C)C)cn2ncnc2c1C (single isomer, unassigned) [Example 275, 1-(4-(4,4-difluoropiperidin-1-yl)cyclohexyl)-5-(7,8-dimethyl-[1,2,4]triazolo[1,5-a]pyridin-6-yl)-6-isopropyl-1,3-dihydro-2H-benzo[d]imidazol-2-one]
1.92 nM	15300 nM	Cc1c(-c2cc3[nH]c(=O)n(C4CCC(N5CCC(F)(F)CC5)CC4)c3cc2C(C)C)cn2ncnc2c1C (single isomer, unassigned) [Example 276, 1-(4-(4,4-difluoropiperidin-1-yl)cyclohexyl)-5-(7,8-dimethyl-[1,2,4]triazolo[1,5-a]pyridin-6-yl)-6-isopropyl-1,3-dihydro-2H-benzo[d]imidazol-2-one]
0.74 nM	7380 nM	COC1CN(C2CCC(n3c(=O)[nH]c4cc(-c5cn6ncnc6c(C)c5C)c(C(C)C)cc43)CC2)C1 (single isomer, unassigned) [Example 277, 5-(7,8-dimethyl-[1,2,4]triazolo[1,5-a]pyridin-6-yl)-6-isopropyl-1-(4-(3-methoxyazetidin-1-yl)cyclohexyl)-1,3-dihydro-2H-benzo[d]imidazol-2-one]
1.57 nM	15200 nM	COC1CN(C2CCC(n3c(=O)[nH]c4cc(-c5cn6ncnc6c(C)c5C)c(C(C)C)cc43)CC2)C1 (single isomer, unassigned) [Example 278, 5-(7,8-dimethyl-[1,2,4]triazolo[1,5-a]pyridin-6-yl)-6-isopropyl-1-(4-(3-methoxyazetidin-1-yl)cyclohexyl)-1,3-dihydro-2H-benzo[d]imidazol-2-one]
2.67 nM	13100 nM	Cc1c(-c2cc3[nH]c(=O)n(C4CCC(N5CC6(COC6)C5)CC4)c3cc2C(C)C)cn2ncnc2c1C (single isomer, unassigned) [Example 281, 1-(4-(2-oxa-6-azaspiro[3.3]heptan-6-yl)cyclohexyl)-5-(7,8-dimethyl-[1,2,4]triazolo[1,5-a]pyridin-6-yl)-6-isopropyl-1,3-dihydro-2H-benzo[d]imidazol-2-one]
0.51 nM	14400 nM	Cc1c(-c2cc3[nH]c(=O)n(C4CCC(N5CCC6(CC5)COC6)CC4)c3cc2C(C)C)cn2ncnc2c1C (single isomer, unassigned) [Example 282, 1-(4-(2-oxa-7-azaspiro[3.5]nonan-7-yl)cyclohexyl)-5-(7,8-dimethyl-[1,2,4]triazolo[1,5-a]pyridin-6-yl)-6-isopropyl-1,3-dihydro-2H-benzo[d]imidazol-2-one]
0.09 nM	5340 nM	Cc1c(-c2cc3[nH]c(=O)n(C4CCC(N5CCC6(CC5)COC6)CC4)c3cc2C(C)C)cn2ncnc2c1C (single isomer, unassigned) [Example 283, 1-(4-(2-oxa-7-azaspiro[3.5]nonan-7-yl)cyclohexyl)-5-(7,8-dimethyl-[1,2,4]triazolo[1,5-a]pyridin-6-yl)-6-isopropyl-1,3-dihydro-2H-benzo[d]imidazol-2-one]
0.75 nM	47800 nM	COc1cc(-c2cc3[nH]c(=O)n(C4CCC(N5CCC(S(C)(=O)=O)C5)CC4)c3cc2C(C)C)cn2ncnc12 (single isomer, unassigned) [Example 288, 6-isopropyl-5-(8-methoxy-[1,2,4]triazolo[1,5-a]pyridin-6-yl)-1-(4-(3-(methylsulfonyl)pyrrolidin-1-yl)cyclohexyl)-1,3-dihydro-2H-benzo[d]imidazol-2-one]
4.44 nM	> 50000 nM	COc1cc(-c2cc3[nH]c(=O)n(C4CCC(N5CCC(S(C)(=O)=O)C5)CC4)c3cc2C(C)C)cn2ncnc12 (single isomer, unassigned) [Example 289, 6-isopropyl-5-(8-methoxy-[1,2,4]triazolo[1,5-a]pyridin-6-yl)-1-(4-(3-(methylsulfonyl)pyrrolidin-1-yl)cyclohexyl)-1,3-dihydro-2H-benzo[d]imidazol-2-one]
0.53 nM	7100 nM	COC[C@@H]1CCN(C2CCC(n3c(=O)[nH]c4cc(-c5cc(OC)c6ncnn6c5)c(C(C)C)cc43)CC2)C1 (single isomer, unassigned) [Example 290]
1.86 nM	12300 nM	COC[C@@H]1CCN(C2CCC(n3c(=O)[nH]c4cc(-c5cc(OC)c6ncnn6c5)c(C(C)C)cc43)CC2)C1 (single isomer, unassigned) [Example 291]
0.13 nM	28900 nM	COc1cc(-c2cc3[nH]c(=O)n(C4CCC(N5C[C@@H](F)[C@@H](F)C5)CC4)c3cc2C(C)C)cn2ncnc12 (single isomer, unassigned) [Example 292]
7.74 nM	23400 nM	COc1cc(-c2cc3[nH]c(=O)n(C4CCC(N5C[C@@H](F)[C@@H](F)C5)CC4)c3cc2C(C)C)cn2ncnc12 (single isomer, unassigned) [Example 293]
3.14 nM	35200 nM	COc1cc(-c2cc3[nH]c(=O)n(C4CCC(N5CCC(F)(F)C5)CC4)c3cc2C(C)C)cn2ncnc12 (single isomer, unassigned) [Example 294, 1-(4-(3,3-difluoropyrrolidin-1-yl)cyclohexyl)-6-isopropyl-5-(8-methoxy-[1,2,4]triazolo[1,5-a]pyridin-6-yl)-1,3-dihydro-2H-benzo[d]imidazol-2-one]
7.9 nM	22200 nM	COc1cc(-c2cc3[nH]c(=O)n(C4CCC(N5CCC(F)(F)C5)CC4)c3cc2C(C)C)cn2ncnc12 (single isomer, unassigned) [Example 295, 1-(4-(3,3-difluoropyrrolidin-1-yl)cyclohexyl)-6-isopropyl-5-(8-methoxy-[1,2,4]triazolo[1,5-a]pyridin-6-yl)-1,3-dihydro-2H-benzo[d]imidazol-2-one]
3.4 nM	> 50000 nM	COc1cc(-c2cc3[nH]c(=O)n(C4CCC(N5CC(F)(F)C5)CC4)c3cc2C(C)C)cn2ncnc12 (single isomer, unassigned) [Example 296]
8.4 nM	16200 nM	COc1cc(-c2cc3[nH]c(=O)n(C4CCC(N5CC(F)(F)C5)CC4)c3cc2C(C)C)cn2ncnc12 (single isomer, unassigned) [Example 297]
